# Reference: patent US10927111B2, “Inhibitors of RAF kinases” (Kinnate Biopharma Inc., priority 2019, dated 2021)
# Molecular target: human RAF1 (Homo sapiens (Human), UniProt P04049)
# Assay: Protein kinase assay (radiometric 33P-ATP, MEK1 (K97R) substrate)
# Format: biochemical
# Settings: human MEK1 (K97R) substrate 3 micromolar, ATP 10 micromolar, 10-dose IC50 mode; read-out: RAF-1 IC50
# Protocol: Protein kinase assay: Assay platform was used to measure kinase/inhibitor interactions as described previously (Anastassiadis et al., 2011). In brief, for each reaction, kinase and substrate were mixed in a buffer containing 20 mM HEPES (pH 7.5), 10 mM MgCl2, 1 mM EGTA, 0.02% Brij35, 0.02 mg/mL BSA, 0.1 mM Na3VO4, 2 mM DTT, and 1% DMSO. All compounds were solubilized in DMSO. Compounds were then added to each reaction mixture via acoustic dispense using an ECHO 550 nanoliter dispenser. For human RAF1 testing, human MEK1 (K97R) was used as a substrate at a concentration of 3 micromolar, with a final ATP concentration of 10 micromolar. For human BRAF testing, human MEK1 (K97R) was used as a substrate at 1 micromolar concentration, with a final ATP concentration of 25 micromolar. […] After a 20-min incubation, ATP (Sigma-Aldrich, St. Louis, Mo. 63178) and [g33P] ATP (specific activity 10 microCi/microliter) purchased at PerkinElmer (Boston, Mass., 02118 Cat #BLU 003H250UC) were added at a final total concentration of 10 mM. Reactions were carried out at room temperature for 2 hr and spotted onto P81 ionexchange cellulose chromatography paper (Reaction Biology). Filter paper was washed in 0.75% phosphoric acid to remove unincorporated ATP. The percent remaining kinase activity relative to a vehicle-containing (DMSO) kinase reaction was calculated for each kinase/inhibitor pair. IC50 values were calculated using Prism 5 (GraphPad).
# Sequence of human RAF1 (P04049 whole entry): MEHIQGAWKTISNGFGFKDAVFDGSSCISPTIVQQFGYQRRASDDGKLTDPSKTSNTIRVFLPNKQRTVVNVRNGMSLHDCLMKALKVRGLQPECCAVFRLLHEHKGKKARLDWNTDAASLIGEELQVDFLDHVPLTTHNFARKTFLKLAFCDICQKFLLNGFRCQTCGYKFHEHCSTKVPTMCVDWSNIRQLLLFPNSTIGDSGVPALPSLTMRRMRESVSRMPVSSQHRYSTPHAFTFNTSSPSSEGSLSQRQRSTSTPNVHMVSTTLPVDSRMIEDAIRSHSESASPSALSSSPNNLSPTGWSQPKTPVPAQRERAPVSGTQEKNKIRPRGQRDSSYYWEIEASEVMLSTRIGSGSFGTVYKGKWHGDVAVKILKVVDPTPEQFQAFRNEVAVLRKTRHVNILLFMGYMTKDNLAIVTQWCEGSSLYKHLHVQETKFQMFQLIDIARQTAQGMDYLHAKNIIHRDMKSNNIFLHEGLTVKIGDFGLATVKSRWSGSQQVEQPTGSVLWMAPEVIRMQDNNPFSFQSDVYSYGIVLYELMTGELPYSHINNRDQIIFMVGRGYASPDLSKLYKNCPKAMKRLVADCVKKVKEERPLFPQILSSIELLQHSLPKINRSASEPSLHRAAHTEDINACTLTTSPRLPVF
row,Structure (SMILES),IC50
1,"CCc1nc2nc(NC)ncc2cc1-c1cc(NC(=O)c2ccnc(C(F)(F)F)c2)ccc1C [Example 36, N-(3-(7-ethyl-2-(methylamino)pyrido[2,3-d]pyrimidin-6-yl)-4-methylphenyl)-2-(trifluoromethyl)isonicotinamide]",≤ 10 nM
2,CNc1ncc2cc(-c3cc(NC(=O)N4CCO[C@H](C(F)(F)F)C4)ccc3C)c(C)nc2n1 [Example 13],≤ 10 nM
3,"Cc1ccc(NC(=O)c2ccnc(C(F)(F)F)c2)cc1-c1cc2cnc(NC3CC3)nc2nc1C [Example 37, N-(3-(2-(cyclopropylamino)-7-methylpyrido[2,3-d]pyrimidin-6-yl)-4-methylphenyl)-2-(trifluoromethyl)isonicotinamide]",≤ 10 nM
4,"CNc1ncc2cc(-c3cc(NC(=O)c4cccc(C(F)(F)F)c4)cnc3C)c(C)nc2n1 [Example 44, N-(6-methyl-5-(7-methyl-2-(methylamino)pyrido[2,3-d]pyrimidin-6-yl)pyridin-3-yl)-3-(trifluoromethyl)benzamide]",≤ 10 nM
5,"CNc1ncc2cc(-c3cc(NC(=O)N4CC[C@H](CC(F)(F)F)C4)c(F)cc3C)c(C)nc2n1 [Example 17, (R)-N-(2-fluoro-4-methyl-5-(7-methyl-2-(methylamino)pyrido[2,3-d]pyrimidin-6-yl)phenyl)-3-(2,2,2-trifluoroethyl)pyrrolidine-1-carboxamide]",≤ 10 nM
6,"C=Cc1nc2nc(NC)ncc2cc1-c1cc(NC(=O)c2ccnc(C(F)(F)F)c2)ccc1C [Example 65, N-[3-[7-ethenyl-2-(methylamino)pyrido[2,3-d]pyrimidin-6-yl]-4-methylphenyl]-2-(trifluoromethyl)pyridine-4-carboxamide]",≤ 10 nM
7,"CNc1ncc2cc(-c3cc(NC(=O)N4CCC(C(C)(C)C)C4)c(F)cc3C)c(C)nc2n1 (stereo not drawn) [Example 21, 3-(tert-butyl)-N-(2-fluoro-4-methyl-5-(7-methyl-2-(methylamino)pyrido[2,3-d]pyrimidin-6-yl)phenyl)pyrrolidine-1-carboxamide]",≤ 10 nM
8,"CNc1ncc2cc(-c3cc(NC(=O)N4CC[C@H](CC(F)(F)F)C4)ccc3C)c(C)nc2n1 [Example 19, (R)-N-(4-methyl-3-(7-methyl-2-(methylamino)pyrido[2,3-d]pyrimidin-6-yl)phenyl)-3-(2,2,2-trifluoroethyl)pyrrolidine-1-carboxamide]",≤ 10 nM
9,"CNc1ncc2cc(-c3cc(NC(=O)N4CCC(C(F)(F)F)C4)ccc3C)cnc2n1 (stereo in doubt) [Example 54, (3R)—N-[4-methyl-3-[2-(methylamino)pyrido[2,3-d]pyrimidin-6-yl]phenyl]3(trifluoromethyl)pyrrolidine-1-carboxamide]",≤ 10 nM
10,"CNc1ncc2cc(-c3cc(NC(=O)c4ccnc(C(F)(F)F)c4)ccc3C)cnc2n1 [Example 53, N-[4-methyl-3-[2-(methylamino)pyrido[2,3-d]pyrimidin-6-yl]phenyl]-2-(trifluoromethyl)pyridine-4-carboxamide]",≤ 10 nM
11,"Cc1ccc(NC(=O)c2ccnc(C(F)(F)F)c2)cc1-c1cc2cnc(NCCO)nc2nc1C [Example 40, N-(3-(2-((2-hydroxyethyl)amino)-7-methylpyrido[2,3-d]pyrimidin-6-yl)-4-methylphenyl)-2-(trifluoromethyl)isonicotinamide]",≤ 10 nM
12,"CNc1ncc2cc(-c3cc(NC(=O)c4ccnc(C(F)(F)F)c4)ccc3C)c(C(F)(F)F)nc2n1 [Example 73, N-[4-methyl-3-[2-(methylamino)-7-(trifluoromethyl)pyrido[2,3-d]pyrimidin-6-yl]phenyl]-2-(trifluoromethyl)pyridine-4-carboxamide]",≤ 10 nM
13,"CCOc1nc2nc(NC)ncc2cc1-c1cc(NC(=O)c2ccnc(C(F)(F)F)c2)ccc1C [Example 69, N-[3-[7-ethoxy-2-(methylamino)pyrido[2,3-d]pyrimidin-6-yl]-4-methylphenyl]-2-(trifluoromethyl)pyridine-4-carboxamide]",≤ 10 nM
14,"CNc1ncc2cc(-c3cc(NC(=O)N4CC=C(C(F)(F)F)C4)c(F)cc3C)c(C)nc2n1 [Example 3, N-(2-fluoro-4-methyl-5-(7-methyl-2-(methylamino)pyrido[2,3-d]pyrimidin-6-yl)phenyl)-3-(trifluoromethyl)-2,5-dihydro-1H-pyrrole-1-carboxamide]",≤ 10 nM

# Same assay, conditions: read-out: RAF-1 IC50
row,Structure (SMILES),IC50
1,"CNc1ncc2cc(-c3cc(NC(=O)N4CCC(C(F)(F)F)C4)ccc3C)cnc2n1 (stereo in doubt) [Example 55, (3S)—N-[4-methyl-3-[2-(methylamino)pyrido[2,3-d]pyrimidin-6-yl]phenyl]-3-(trifluoromethyl)pyrrolidine-1-carboxamide]",≤ 10 nM
2,"CNc1ncc2cc(-c3cc(NC(=O)N4CCO[C@@H](CC(F)(F)F)C4)c(F)cc3C)c(C)nc2n1 [Example 26, (S)-N-(2-fluoro-4-methyl-5-(7-methyl-2-(methylamino)pyrido[2,3-d]pyrimidin-6-yl)phenyl)-2-(2,2,2-trifluoroethyl)morpholine-4-carboxamide]",≤ 10 nM
3,"CNc1ncc2cc(-c3cc(NC(=O)N4CCO[C@H](CC(F)(F)F)C4)c(F)cc3C)c(C)nc2n1 [Example 25, (R)-N-(2-fluoro-4-methyl-5-(7-methyl-2-(methylamino)pyrido[2,3-d]pyrimidin-6-yl)phenyl)-2-(2,2,2-trifluoroethyl)morpholine-4-carboxamide]",≤ 10 nM
4,CNc1ncc2cc(-c3cc(NC(=O)N4CC[C@@H](SC(F)(F)F)C4)ccc3C)c(C)nc2n1 [Example 4],10 to 100 nM
